Test results published in patent publication US20240109868A1, “EP300/CBP MODULATOR, PREPARATION METHOD THEREFOR AND USE THEREOF” (Miracure Biotechnology Limited, priority 2022, published 2024).

Legend:
22Rv1 Cell = experiment: 22RV1 cell growth inhibition, CellTiter-Glo, 72 h; type: cell-based; conditions: 22RV1 cells, 72 h culture
How it was run: (§1)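 Cells seeded at 5×10^3/well overnight in RPMI-1640/10% FBS, then exposed to compound (0.5% DMSO final) for 72 h at 37 °C.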

vCap Cell = experiment: vCap cell growth inhibition, CellTiter-Glo, 72 h; type: cell-based; conditions: vCap cells, 72 h culture
How it was run: as §1

For CC(=O)N1Cc2cc(C3CNC(=O)OC3)cc(N3CCCc4cc(-c5cnn(C)c5)c(C(F)F)cc43)c2C1 (stereo not drawn) [Compound M001246], the IC50 (22Rv1 Cell; Homo sapiens, 22Rv1, 72 h) was over 1000 nM and the IC50 (vCap Cell; Homo sapiens, VCaP, 72 h) was over 1000 nM.
Work on CC(=O)N1CCc2cccc(N3CCCc4cc(-c5cnn(C)c5)c(C(F)F)cc43)c2C1 [Compound M001207] yielded an IC50 (22Rv1 Cell; Homo sapiens, 22Rv1, 72 h) of over 1000 nM and an IC50 (vCap Cell; Homo sapiens, VCaP, 72 h) of over 1000 nM.
CNC(=O)N1CCc2cc(C3CCN(CC(C)(C)O)C(=O)C3)cc(N3CCCc4cc(-c5cnn(C)c5)c(C(F)F)cc43)c2C1 (stereo not drawn) [Compound M001280] showed an IC50 (22Rv1 Cell; Homo sapiens, 22Rv1, 72 h) of under 1000 nM and an IC50 (vCap Cell; Homo sapiens, VCaP, 72 h) of over 1000 nM.
COC(=O)N1CCc2cc(C3CCC(=O)N(CC(C)(C)O)C3)cc(N3CCCc4cc(-c5cnn(C)c5)c(C(F)F)cc43)c2C1 (stereo not drawn) [Compound M001272] gave an IC50 (22Rv1 Cell; Homo sapiens, 22Rv1, 72 h) of over 1000 nM and an IC50 (vCap Cell; Homo sapiens, VCaP, 72 h) of over 1000 nM.
Compound CNC(=O)N1CCc2cc(C3=CC4CCC(C3)N4)cc(N3CCCc4cc(-c5cnn(C)c5)c(C(F)F)cc43)c2C1 (stereo not drawn) [Compound M001088] has an IC50 (22Rv1 Cell; Homo sapiens, 22Rv1, 72 h) of over 1000 nM and an IC50 (vCap Cell; Homo sapiens, VCaP, 72 h) of over 1000 nM.
CNC(=O)N1CCc2cc(C3CCN(C)C(=O)C3)cc(N3CCCc4cc(-c5cnn(C)c5)c(C(F)F)cc43)c2C1 (stereo not drawn) [Compound M001124, 8-(7-(difluoromethyl)-6-(1-methyl-1H-pyrazol-4-yl)-3,4-dihydroquinolin-1(2H)-yl)-N-methyl-6-(1-methyl-2-oxopiperidin-4-yl)-3,4H-dihydroisoquinoline-2(1H)-carboxamide] showed an IC50 (22Rv1 Cell; Homo sapiens, 22Rv1, 72 h) of under 1000 nM and an IC50 (vCap Cell; Homo sapiens, VCaP, 72 h) of under 1000 nM.
For CC(=O)N1Cc2cc(C3CCN(C(=O)C4CC4)CC3)cc(N3CCCc4cc(-c5cnn(C)c5)c(C(F)F)cc43)c2C1 [Compound M001072], the IC50 (22Rv1 Cell; Homo sapiens, 22Rv1, 72 h) was over 1000 nM and the IC50 (vCap Cell; Homo sapiens, VCaP, 72 h) was over 1000 nM.
In the case of CC(=O)N1CCc2cc(-c3cc[nH]c(=O)c3)cc(N3CCCc4cc(-c5cnn(C)c5)c(C(F)F)cc43)c2C1 [Compound M001153], the IC50 (22Rv1 Cell; Homo sapiens, 22Rv1, 72 h) is reported as over 1000 nM and the IC50 (vCap Cell; Homo sapiens, VCaP, 72 h) is reported as over 1000 nM.
In the case of CC(=O)N1Cc2cc(C3CCN(C(=O)C4CCNC4)CC3)cc(N3CCCc4cc(-c5cnn(C)c5)c(C(F)F)cc43)c2C1 (stereo not drawn) [Compound M001080], the IC50 (22Rv1 Cell; Homo sapiens, 22Rv1, 72 h) is reported as over 1000 nM and the IC50 (vCap Cell; Homo sapiens, VCaP, 72 h) is reported as over 1000 nM.
Compound CC(=O)N1Cc2cc(C3CCN(C)CC3)cc(N3CCCc4cc(-c5cnn(C)c5)c(C(F)F)cc43)c2C1 [Compound M001041] has an IC50 (22Rv1 Cell; Homo sapiens, 22Rv1, 72 h) of over 1000 nM and an IC50 (vCap Cell; Homo sapiens, VCaP, 72 h) of over 1000 nM.
Work on CNC(=O)N1Cc2cc(C3CCN(C(=O)C4CC4)CC3)cc(N3CCCc4cc(-c5cnn(C)c5)c(C(F)F)cc43)c2C1 [Compound M001162] yielded an IC50 (22Rv1 Cell; Homo sapiens, 22Rv1, 72 h) of over 1000 nM and an IC50 (vCap Cell; Homo sapiens, VCaP, 72 h) of over 1000 nM.
For CCN1CCC(c2cc3c(c(N4CCCc5cc(-c6cnn(C)c6)c(C(F)F)cc54)c2)CN(C(N)=O)CCC3)CC1=O (stereo not drawn) [Compound M001261], the IC50 (22Rv1 Cell; Homo sapiens, 22Rv1, 72 h) was over 1000 nM and the IC50 (vCap Cell; Homo sapiens, VCaP, 72 h) was over 1000 nM.
Compound CNC(=O)N1CCc2cc(C3CCN(C)CC3)cc(N3CCCc4cc(-c5cnn(C)c5)c(C(F)F)cc43)c2C1 [Compound M001018] has an IC50 (22Rv1 Cell; Homo sapiens, 22Rv1, 72 h) of over 1000 nM and an IC50 (vCap Cell; Homo sapiens, VCaP, 72 h) of over 1000 nM.
CNC(=O)N1Cc2cc(C3CC4CCC(C3)N4)cc(N3CCCc4cc(-c5cnn(C)c5)c(C(F)F)cc43)c2C1 (stereo not drawn) [Compound M001099] showed an IC50 (22Rv1 Cell; Homo sapiens, 22Rv1, 72 h) of over 1000 nM and an IC50 (vCap Cell; Homo sapiens, VCaP, 72 h) of over 1000 nM.
Compound Cn1cc(-c2cc3c(cc2C(F)F)N(c2cccc4c2NC(=O)CCC4)CCC3)cn1 [Compound M001236, 9-[7-(difluoromethyl)-6-(1-methylpyrazol-4-yl)-3,4-dihydro-2H-quinolin-1-yl]-1,3,4,5-tetrahydro-1-benzazepin-2-one] has an IC50 (22Rv1 Cell; Homo sapiens, 22Rv1, 72 h) of over 1000 nM and an IC50 (vCap Cell; Homo sapiens, VCaP, 72 h) of over 1000 nM.
For CC(=O)N1Cc2cc(C3CCC(S(C)(=N)=O)CC3)cc(N3CCCc4cc(-c5cnn(C)c5)c(C(F)F)cc43)c2C1 (stereo not drawn) [Compound M001327], the IC50 (22Rv1 Cell) was over 1000 nM and the IC50 (vCap Cell) was over 1000 nM.
Compound CC(=O)N1Cc2cc(C3CCN(CC#N)CC3)cc(N3CCCc4cc(-c5cnn(C)c5)c(C(F)F)cc43)c2C1 [Compound M001074] has an IC50 (22Rv1 Cell; Homo sapiens, 22Rv1, 72 h) of under 1000 nM and an IC50 (vCap Cell; Homo sapiens, VCaP, 72 h) of under 1000 nM.
COC(=O)N1CCCc2cccc(N3CCCc4cc(-c5cnn(C)c5)c(C(F)F)cc43)c2C1 [Compound M001210] showed an IC50 (22Rv1 Cell; Homo sapiens, 22Rv1, 72 h) of over 1000 nM and an IC50 (vCap Cell; Homo sapiens, VCaP, 72 h) of over 1000 nM.
Work on CNC(=O)N1Cc2cc(C3CCNC(=O)C3)cc(N3CCCc4cc(-c5cnn(C)c5)c(C(F)F)cc43)c2C1 (stereo not drawn) [Compound M001118] yielded an IC50 (22Rv1 Cell; Homo sapiens, 22Rv1, 72 h) of over 1000 nM and an IC50 (vCap Cell; Homo sapiens, VCaP, 72 h) of over 1000 nM.
Work on CC(=O)N1Cc2cc(C3CCN(S(C)(=O)=O)CC3)cc(N3CCCc4cc(-c5cnn(C)c5)c(C(F)F)cc43)c2C1 [Compound M001296] yielded an IC50 (22Rv1 Cell; Homo sapiens, 22Rv1, 72 h) of under 1000 nM and an IC50 (vCap Cell; Homo sapiens, VCaP, 72 h) of under 1000 nM.
Compound CNC(=O)N1Cc2cc(C3CCC(OC)CC3)cc(N3CCCc4cc(-c5cnn(C)c5)c(C(F)F)cc43)c2C1 (stereo not drawn) [Compound M001200] has an IC50 (22Rv1 Cell; Homo sapiens, 22Rv1, 72 h) of over 1000 nM and an IC50 (vCap Cell; Homo sapiens, VCaP, 72 h) of over 1000 nM.
